In patent US20130345257A1, “COMPOSITION FOR LUPUS NEPHRITIS AND METHODS OF MAKING AND USING THE SAME” (The Regents of the University of California, priority 2012, published 2013):
Entries after “also recorded” stand apart in the source; their conditions may differ.

Columns and labels:
Type in all cases: in vivo, mouse
[1] = tested on: BWF1 mice with high proteinuria (PU^hi); experiment: Therapeutic treatment of BWF1 mice after clinical nephritis / high proteinuria (PU^hi)
Protocol: Therapeutic Groups: a low proteinuria group)(PU^lo) consisted of mice with IgG anti-dsDNA detectable in serum and proteinuria ≦100 mg/dL, and a high proteinuria group (PU^hi) had proteinuria ≧300 mg/dL.
(§1) Proteinuria was evaluated weekly using Albustix (Siemens), serum creatinine using a commercial kit (Arbor Assays) and anti-dsDNA IgG antibodies by ELISA as described previously (10). See, e.g., FIGS. 1 and 2.
(§2) Kidney specimens of BWF1 mice (37 weeks of age in the prevention group or 7 and 11 weeks after institution of early or late therapies) were embedded in OCT compound and snap frozen. 4-5 μm an sections were air-dried, fixed with cold acetone and incubated with blocking buffer (anti-CD16/CD32 (1/50), 2% normal goat or rat serum, 2% BSA).
Histological analysis of glomerular pathology was done by an investigator blinded to treatment group and included acute inflammatory features (endocapillary hypercellularity, mesangial hypercellularity, cellular necrosis, cellular crescents, and interstitial inflammation), and chronic features (global glomerulosclerosis (GS), focal segmental glomerulosclerosis (FSGS), and interstitial fibrosis or tubular atrophy (IF/TA)). […] The weighted total score of the clinical features was based on this formula: [endocapillary hypercellularity+mesengial hypercellularity+(cellular necrosis*2)+(cellular crescents*2)+interstitial inflammation)/5]+(GS+FSGS+IFTA)/3, with maximum score 5.2. A minimum of 25 glomeruli, of at least 10 mice per group, were scored. Scores from each individual mouse were added and averaged to yield the glomerulonephritis score.

[2] = tested on: lupus nephritis in BWF1 mice; experiment: Preventive treatment of pre-nephritic BWF1 mice (survival, proteinuria, creatinine, anti-dsDNA, renal histology, IgG/C3 deposition)
Protocol: Clinical and immune cell changes were compared in groups of 10-12 BWF1 female mice in the following groups: • Group 1: Water orally 3 times a week for 24 weeks. • Group 2: Laquinimod 1 mg/kg orally 3 times a week for 24 weeks. • Group 3: Laquinimod 25 mg/kg orally 3 times a week for 24 weeks. • Group 4: Mycophenolate Mofetil 30 mg/kg orally […] for 24 weeks. • Group 5: Mycophenolate Mofetil 100 mg/kg orally […] for 24 weeks (“MMF 100”).
Preventive Group: 11-week old (pre-nephritic) BWF1 female mice were treated orally 3 times a week with a) water; b) laquinimod at 1 mg/kg (LAQ1, low dose) or c) 25 mg/kg (LAQ25, high dose) (Teva Pharmaceutical); or 5 times a week with d) mycophenolate mofetil at 30 mg/kg (MMF30, low dose) or e) 100 mg/kg (MMF100, high dose).
as §1, §2
Immunoglobulin G and C3 complement glomerular deposition were investigated by incubation of cryosections with fluoroscein isothiocyanate (FITC)-conjugated goat anti-mouse IgG (1:50) (Sigma) or rat anti-mouse C3 (1:800) (Solulink) in blocking buffer for 2 hours at room temperature. Images were acquired using Nikon Eclipse TE2000-U microscope and MetaMorph 6.3 software (Sunnyvale, Calif.). Quantification of the area immunostained in tissue sections was made using the computer image analysis software ImageJ (rsbinfonihgov</>ij</>indexhtml). For histology, kidney sections were fixed in 10% formalin and 2 μm-paraffin sections were stained with H&E, PAS and methenamine silver (Jones) for histological analysis.
Histological analysis of glomerular pathology was done by an investigator blinded to treatment group and included acute inflammatory features (endocapillary hypercellularity, mesangial hypercellularity, cellular necrosis, cellular crescents, and interstitial inflammation), and chronic features (global glomerulosclerosis (GS), focal segmental glomerulosclerosis (FSGS), and interstitial fibrosis or tubular atrophy (IF/TA)). The severity of each feature was graded as 0 (absent), 1 (lesions involving up to 25% of the component evaluated), 2 (lesions in 26-50% evaluated) or 3 (lesions in >50%) in each field of the microscope at 400× magnification. The weighted total score of the clinical features was based on this formula: [endocapillary hypercellularity+mesengial hypercellularity+(cellular necrosis*2)+(cellular crescents*2)+interstitial inflammation)/5]+(GS+FSGS+IFTA)/3, with maximum score 5.2. A minimum of 25 glomeruli, of at least 10 mice per group, were scored. Scores from each individual mouse were added and averaged to yield the glomerulonephritis score.

[3] = tested on: leukocyte subsets present in kidney; experiment: Leukocyte subsets in kidney of treated BWF1 mice by flow cytometry; set-up: Frequency of cells ± SEM: CD11c^+CD11b− (DC) / Frequency of cells ± SEM: CD11b^+Ly6C^+Ly6G− / Frequency of cells ± SEM: CD11b^+Ly6C^+Ly6G+ / Frequency of cells ± SEM: CD4+ / Frequency of cells ± SEM: CD8+ / Frequency of cells ± SEM: CD11b^+MDSC−(Mφ) / Frequency of cells ± SEM: CD11c^+CD11b+(DC): unit not given here; conditions: kidney, LAQ 25 mg/kg, MMF 100 mg/kg; for Frequency of cells ± SEM: CD19+: in % (unit assumed)
Protocol: Single cell suspensions of splenocytes or kidney cells were prepared using cell strainers (Fisher), followed by red blood cell lysis. Kidney lymphocytes were separated from connective tissue by centrifugation (15 minutes at 400g) in 30% Percoll (GE Healthcare). CD4^+CD25^− cells from spleen and kidney were isolated using the CD4^+CD25^+ regulatory T cell isolation kit according to manufacturer's protocol (Miltenyi). CD11b+ cells were isolated using EasySep mouse CD11b positive selection kit (StemCell Technologies), surface stained for Ly6C and Ly6G prior to sorting myeloid-derived suppressor cells (MDSC) using FACSAria II. Populations were >95% pure by FACS analysis.
Single-cell suspensions from spleen or kidneys were stained for extracellular markers for 20 min at 4° C. in PBS/1% FBS. Intracellular staining for Foxp3 and cytokines was performed using the Foxp3 Fixation/Permeabilization kit according to the manufacturer's protocol (eBioscience). Cells were acquired on a FACS LSR II (BD) and data was analyzed using Flowjo (Tree Star).

[4] = Preventive, 25 weeks after treatment
[5] = Therapeutic (PU^lo), 10 wks after initiation of therapy

With `COc1c(C)c2c(c(O)c1C/C=C(\C)CCC(=O)OCCN1CCOCC1)C(=O)OC2` [MMF, mycophenolate mofetil, reference compound] as the compound, how does the “Animals with proteinuria reduced to levels below 300 mg/dL” value ([1]; PU^hi arm, after 8 weeks of treatment, LAQ 25 mg/kg, MMF 100 mg/kg) read?
The value was “approximately 25%”.

What about the “FSGS and IF/TA histology scores” value ([1]; PU^hi arm, compared to controls) of the same compound?
The value was “significantly lower”.

What about the Survival ([1]; treated after clinical nephritis / PU^hi, LAQ 25 mg/kg 3 times a week, MMF 100 mg/kg 5 times a week, vs water) of the same compound?
The Survival was “not observed”.

And the Survival vs. controls ([2]; BWF1 females treated orally for 24 weeks before disease, LAQ 1 and 25 mg/kg, MMF 100 mg/kg, p=0.028)?
Its Survival vs. controls is “better”.

What about the “Survival, low dose treatment” value ([2]; LAQ 1 mg/kg 3 days a week, MMF 30 mg/kg 5 days a week, prior to anti-dsDNA and proteinuria, vs water) of the same compound?
The value was “significantly better; also recorded: still alive at 45 weeks”.

What about the “Chronic scarring (GS, FSGS, IFTA) in kidney” value ([2]; higher doses, treated before proteinuria, vs water) of the same compound?
Its value is “less”.

What about the “Onset of proteinuria beyond 32 weeks up until about 42 weeks” value ([2]; low dose: LAQ 1 mg/kg 3 times a week, MMF 30 mg/kg) of the same compound?
The value was “effective in delaying onset of proteinuria”.

What about the “Serum/plasma IgG anti-dsDNA antibody levels” value ([2]; preventive treatment, LAQ 1 or 25 mg/kg, MMF 100 mg/kg, vs water) of the same compound?
The value was “suppressed; also recorded: lower anti-DNA levels”.

What about the Prevention of proteinuria ([2]; preventive treatment, MMF 30 mg/kg, 18-week study period) of the same compound?
The Prevention of proteinuria was “did not”.

And the Prevention of proteinuria ([2]; preventive treatment, both LAQ doses (1, 25 mg/kg), MMF 100 mg/kg)?
Its Prevention of proteinuria is “prevented proteinuria and prevented the appearance of proteinuria and none”.

And the “Kidney specimens (histology, glomerular IgG and C3 deposits)” value ([2]; preventive, LAQ 25 mg/kg, MMF 100 mg/kg, after more than 50% of controls developed high proteinuria)?
The value was “largely unremarkable”.

What about the “Mice with proteinuria at 32 wks. of age” value ([2]; treated before disease, LAQ 1 and 25 mg/kg, MMF 100 mg/kg, water 50%, p<0.0001) of the same compound?
Its value is “zero and none”.

And the “Mean total histologic score (renal histology)” value ([2]; treated before disease, MMF 100 mg/kg, water 7.8, p<0.01)?
The value was 0.9.

What about the “Glomerular deposition of Ig and C3” value ([2]; treated prior to onset of clinical nephritis, vs water group p<0.001) of the same compound?
Its value is “in the normal range; also recorded: significantly decreased”.

And the “Frequency of cells ± SEM: CD4+” value [3, 4]?
Its value is 19.4 ± 0.4.

And the “Frequency of cells ± SEM: CD8+” value [3, 4]?
The value was 8.8 ± 0.1.

And the “Frequency of cells ± SEM: CD11b^+Ly6C^+Ly6G+” value [3, 4]?
The value was 1.6 ± 0.2.

What about the “Frequency of cells ± SEM: CD11b^+Ly6C^+Ly6G−” value [3, 4] of the same compound?
Its value is 22.9 ± 0.8.

What about the “Frequency of cells ± SEM: CD11b^+MDSC−(Mφ)” value [3, 4] of the same compound?
The value was 49.8 ± 0.7.

What about the “Frequency of cells ± SEM: CD11c^+CD11b+(DC)” value [3, 4] of the same compound?
The value was 1.0 ± 0.1.

And the “Frequency of cells ± SEM: CD11c^+CD11b− (DC)” value [3, 4]?
Its value is 4.4 ± 0.3.

And the “Frequency of cells ± SEM: CD19+” value [3, 4]?
Its value is 2.3 ± 0.2.

And the “Frequency of cells ± SEM: CD4+” value [3, 5]?
The value was 1.0 ± 0.1.

What about the “Frequency of cells ± SEM: CD8+” value [3, 5] of the same compound?
Its value is 6.6 ± 0.2.

What about the “Frequency of cells ± SEM: CD11b^+Ly6C^+Ly6G+” value [3, 5] of the same compound?
Its value is 1.9 ± 0.3.

And the “Frequency of cells ± SEM: CD11b^+Ly6C^+Ly6G−” value [3, 5]?
The value was 22.4 ± 0.3.

And the “Frequency of cells ± SEM: CD11b^+MDSC−(Mφ)” value [3, 5]?
Its value is 45.7 ± 0.9.

And the “Frequency of cells ± SEM: CD11c^+CD11b+(DC)” value [3, 5]?
The value was 0.6 ± 0.0.

What about the “Frequency of cells ± SEM: CD11c^+CD11b− (DC)” value [3, 5] of the same compound?
Its value is 1.3 ± 0.1.

What about the “Frequency of cells ± SEM: CD19+” value [3, 5] of the same compound?
Its value is 7.2 ± 0.4.
